According to US20250195536A1, “BICYCLOOCTANE KRAS INHIBITORS” (Incyte Corporation, priority 2023, published 2025):

Assays:
[1] = target: KRAS G12D (Homo sapiens, UniProt P01116, G12D); assay: GDP-GTP exchange assay (KRAS G12D); assay type: biochemical; settings: bodipy-GDP/GppNHp exchange with SOS1; 4 h pre-incubation, 2 h reaction;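 note: one dagger IC50 up to 100 nM and two daggers above 100 nM up to 1 μM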
Method in brief: (§1)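 Bodipy-GDP-loaded KRAS (2.5 nM final) was pre-incubated 4 h at r.t. with inhibitor in Hepes pH 7.5 buffer with MgCl2, then exchange started with GppNHp (500 μM) and SOS1 (150 nM) final. Fluorescence (ex 485/em 520 nm) read after 2 h for G12D, 3 h for G12V; IC50 from four-parameter logistic fit.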

[2] = Caco2 assay (permeability, Papp A-B); assay type: in vitro ADME; settings: human, Caco-2, absorptive direction (A-B), 50 μM test compound, 4% BSA in receiver
Method in brief: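 Caco-2 monolayers, 22-25 days on Transwells, TEER 300 Ω·cm^2, dosed apically with 50 μM compound in HBSS; basolateral HBSS with 4% BSA. 120 min at 37 °C, samples quantified by LCMS; Papp (A-B) from receiver-side cumulative flux slope, donor volume, surface area and initial donor amount.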

[3] = target: KRAS G12V (Homo sapiens, UniProt P01116, G12V); assay: GDP-GTP exchange assay (KRAS G12V); assay type: biochemical; settings: bodipy-GDP/GppNHp exchange with SOS1; 3 h incubation after GppNHp-SOS1;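 note: one dagger IC50 up to 100 nM and two daggers above 100 nM up to 1 μM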
Method in brief: as §1

KRAS G12D, sequence (P01116 1-188 isoform P01116-2 G12D): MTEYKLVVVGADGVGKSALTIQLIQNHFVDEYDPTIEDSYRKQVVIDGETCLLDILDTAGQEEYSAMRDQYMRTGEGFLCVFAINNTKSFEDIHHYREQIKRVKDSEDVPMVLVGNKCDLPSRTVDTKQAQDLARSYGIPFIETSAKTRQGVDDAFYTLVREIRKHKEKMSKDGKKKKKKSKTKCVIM
KRAS G12V, sequence (P01116 1-188 isoform P01116-2 G12V): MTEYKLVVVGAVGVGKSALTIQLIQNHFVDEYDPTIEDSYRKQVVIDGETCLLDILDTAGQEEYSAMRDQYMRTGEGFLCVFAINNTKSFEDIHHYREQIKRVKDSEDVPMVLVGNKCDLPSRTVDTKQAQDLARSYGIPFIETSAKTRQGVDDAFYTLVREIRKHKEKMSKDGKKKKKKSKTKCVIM

| G12D_exchange (KRAS_G12D exchange assay IC50) [1] | Papp A→B at 120 min, 50 μM [2] | G12V_exchange (KRAS_G12V exchange assay IC50) [3] | SMILES |
| --- | --- | --- | --- |
| † | ≤ 0.5 ×10⁻⁶ cm/s | † | Cc1nc2c(F)c(-c3cccc(Cl)c3Cl)c(CCC#N)cc2c2c1cc([C@H]1[C@H]3C[C@H](CN(c4cc(C)n(C)n4)C3)N1C(=O)C1CC1)n2[C@H]1[C@H]2CN[C@@H]1C2 (atropisomer, axis not shown; (Ra)) [Example 105, 3-((Ra)-1-((1R,4R,5S)-2-azabicyclo[2.1.1]hexan-5-yl)-2-((1S,5R,7R)-6-(cyclopropanecarbonyl)-3-(1,5-dimethyl-1H-pyrazol-3-yl)-3,6-diazabicyclo[3.2.1]octan-7-yl)-7-(2,3-dichlorophenyl)-6-fluoro-4-methyl-1H-pyrrolo[3,2-c]quinolin-8-yl)propanenitrile] |
| † | ≤ 0.5 ×10⁻⁶ cm/s | † | Cc1nc2c(F)c(-c3cccc(Cl)c3Cl)c(CCC#N)cc2c2c1cc([C@H]1[C@H]3C[C@H](CN(c4ccn(C(C)C)c(=O)c4)C3)N1C(=O)C1CC1)n2[C@H]1[C@H]2CN[C@@H]1C2 (atropisomer, axis not shown; (Ra)) [Example 68, 3-((Ra)-1-((1R,4R,5S)-2-azabicyclo[2.1.1]hexan-5-yl)-2-((1S,5R,7R)-6-(cyclopropanecarbonyl)-3-(1-isopropyl-2-oxo-1,2-dihydropyridin-4-yl)-3,6-diazabicyclo[3.2.1]octan-7-yl)-7-(2,3-dichlorophenyl)-6-fluoro-4-methyl-1H-pyrrolo[3,2-c]quinolin-8-yl)propanenitrile] |
| † | ≤ 0.5 ×10⁻⁶ cm/s | † | Cc1nc2c(F)c(-c3cccc(Cl)c3Cl)c(CCC#N)cc2c2c1cc([C@H]1[C@H]3C[C@H](CN(c4nc(C#N)cs4)C3)N1C(=O)C1CC1)n2[C@H]1[C@H]2CN[C@@H]1C2 (atropisomer, axis not shown; (Ra)) [Example 96, 2-((1S,5R,7R)-7-((Ra)-1-((1R,4R,5S)-2-azabicyclo[2.1.1]hexan-5-yl)-8-(2-cyanoethyl)-7-(2,3-dichlorophenyl)-6-fluoro-4-methyl-1H-pyrrolo[3,2-c]quinolin-2-yl)-6-(cyclopropanecarbonyl)-3,6-diazabicyclo[3.2.1]octan-3-yl)thiazole-4-carbonitrile] |
| †† | ≤ 0.5 ×10⁻⁶ cm/s | † | Cc1nc2c(F)c(-c3cccc(Cl)c3Cl)c(CCC#N)cc2c2c1cc([C@H]1[C@H]3C[C@H](CN(S(=O)(=O)N4CCOCC4)C3)N1C(=O)C1CC1)n2[C@H]1[C@H]2CN[C@@H]1C2 (atropisomer, axis not shown; (Ra)) [Example 111, 3-((Ra)-1-((1R,4R,5S)-2-Azabicyclo[2.1.1]hexan-5-yl)-2-((1 S,5R,7R)-6-(cyclopropanecarbonyl)-3-(morpholinosulfonyl)-3,6-diazabicyclo[3.2.1]octan-7-yl)-7-(2,3-dichlorophenyl)-6-fluoro-4-methyl-1H-pyrrolo[3,2-c]quinolin-8-yl)propanenitrile] |
| †† | ≤ 0.5 ×10⁻⁶ cm/s | † | Cc1nc2c(F)c(-c3cccc(Cl)c3Cl)c(CCC#N)cc2c2c1cc([C@H]1[C@H]3C[C@H](CN(c4ncccc4C#N)C3)N1C(=O)C1CC1)n2[C@H]1[C@H]2CN[C@@H]1C2 (atropisomer, axis not shown; (Ra)) [Example 47, 2-((1S,5R,7R)-7-((Ra)-1-((1R,4R,5S)-2-azabicyclo[2.1.1]hexan-5-yl)-8-(2-cyanoethyl)-7-(2,3-dichlorophenyl)-6-fluoro-4-methyl-1H-pyrrolo[3,2-c]quinolin-2-yl)-6-(cyclopropanecarbonyl)-3,6-diazabicyclo[3.2.1]octan-3-yl)nicotinonitrile] |
| † | ≤ 0.5 ×10⁻⁶ cm/s | † | Cc1nc2c(F)c(-c3cccc(Cl)c3Cl)c(CCC#N)cc2c2c1cc([C@H]1[C@H]3C[C@H](CN(c4ccc(C(F)(F)F)nc4)C3)N1C(=O)C1CC1)n2[C@H]1[C@H]2CN[C@@H]1C2 (atropisomer, axis not shown; (Ra)) [Example 5, 3-((Ra)-1-((1R,4R,5S)-2-azabicyclo[2.1.1]hexan-5-yl)-2-((1S,5R,7R)-6-(cyclopropanecarbonyl)-3-(6-(trifluoromethyl)pyridin-3-yl)-3,6-diazabicyclo[3.2.1]octan-7-yl)-7-(2,3-dichlorophenyl)-6-fluoro-4-methyl-1H-pyrrolo[3,2-c]quinolin-8-yl)propanenitrile] |
| † | 0.5 to 1 ×10⁻⁶ cm/s | † | Cc1c(N2C[C@@H]3C[C@H](C2)N(C(=O)C2CC2)[C@H]3c2cc3c(C)nc4c(F)c(-c5cccc(Cl)c5Cl)c(CCC#N)cc4c3n2[C@H]2[C@H]3CN[C@@H]2C3)ccnc1F (atropisomer, axis not shown; (Ra)) [Example 76, 3-((Ra)-1-((1R,4R,5S)-2-azabicyclo[2.1.1]hexan-5-yl)-2-((1S,5R,7R)-6-(cyclopropanecarbonyl)-3-(2-fluoro-3-methylpyridin-4-yl)-3,6-diazabicyclo[3.2.1]octan-7-yl)-7-(2,3-dichlorophenyl)-6-fluoro-4-methyl-1H-pyrrolo[3,2-c]quinolin-8-yl)propanenitrile] |
